Where “and” joins values, the source holds several entries; their conditions need not be identical. Equal entries are not always repeated. Where two headings read alike, the source gives them in different places.
Tests used:
Type in all cases: cell-based
LC3-GFP (H4-LC3 cells) = assay: LC3-GFP image-based autophagy assay in H4-LC3 cells
Method: FIG. 1 relates to identification of a small molecule inhibitor of autophagy by an image-based screen. A, structure of MBCQ. B, Quantitative analysis of LC3-GFP spot number per cell (a), spot size per cell (b), spot intensity per cell (c). The data are expressed as % of control vehicle treated cells. H4-LC3 cells were seeded in 96 well-plates and incubated with vehicle control (1% DMSO), 0.2 μM rapamycin with or without 10 μM MBCQ for indicated time, fixed with 4% paraformaldehyde and stained with 4,6-diamidino-2-phenylindole (DAPI, 3 μg/ml). Images of 1000 cells for each compound treatment were analyzed by ArrayScan HCS 4.0 Reader with a 20× objective (Cellomics, Pittsburgh, Pa.).
(§1) FIG. 14 depicts MBCQ derivatives that can inhibit autophagy. To calculate EC50, H4-LC3 cells were seeded in 96 well-plates and cultured in the presence of compounds in different concentration for 24 h, and then fixed with polyformate and stained with 4,6-diamidino-2-phenylindole (DAPI, 3 μg/ml). Images data were collected with an ArrayScan HCS 4.0 Reader with a 20× objective (Cellomics, Pittsburgh, Pa.) for DAPI labeled nuclei and GFP-LC3, a marker for autophagy. The Spot Detector Bio-Application was used to acquire and analyze the images after optimization. Images of 1000 cells for each compound treatment were analyzed to obtain average cell number per field, fluorescence spot number, area and intensity per cell. DMSO and rapamycin were used as negative or positive control, respectively. The percentages of changes of LC3-GFP were calculated by dividing with that of DMSO treated samples. Each treatment was done in triplicate for mean and SD. The images were also analyzed using a conventional fluorescence microscope for visual inspection. The experiments were repeated three times
as §1, with “15” for “14”, “with reduced or no ability to” for “that can”, “times.” for “times”
To explore the mechanism of autophagy and identify additional small molecules that can activate it, a high-throughput image-based screen for autophagy regulators was developed. This system takes advantage of the localization of light chain 3 coupled to GFP (LC3-GFP) to autophagosomal membrane upon induction of autophagy (Zhang, L., Yu, J., Pan, H., Hu, P., Hao, Y., Cai, W., Zhu, H., Yu, A. D., Xie, X., Ma, D., et al. (2007). Small molecule regulators of autophagy identified by an image-based high-throughput screen. Proc Natl Acad Sci USA 104, 19023-19028). […] Compounds that increase cellular levels of LC3-GFP, however, are not necessarily able to increase degradative activity of autophagy. Instead, the increases of LC3-GFP may be associated with cell death or may be a result of lysosomal defect and thus associated with blockage of autophagy. […]

PI3P (FYVE-RFP) = assay: FYVE-RFP spots in H4-FYVE cells; conditions: 10 μM; for levels of FYVE-RFP spots: basal and rapamycin treated H4 cells
Method: H4-FYVE cells were treated with DMSO (0.1%), MBCQ (10 μM) or C43 (spautin) (10 μM) for indicated time. A, The images were analyzed by fluorescence microscopy and quantified by HCS after fixing in 4% paraformaldehyde and stained with 4,6-diamidino-2-phenylindole (DAPI, 3 μg/mL). Images of 1000 cells for each compound treatment were analyzed by ArrayScan HCS 4.0 Reader with a 20× objective (Cellomics, Pittsburgh, Pa.). B, H4-FYVE cells were treated with DMSO (0.1%), RAPA (0.2 μM) alone, MBCQ (10 μM) or C43 (spautin) (10 μM) with or without RAPA (0.2 uM) for 8 h. The cell lysates were collected for western blotting using anti-RFP and anti-tubulin as a loading control.
The levels of PtdIns3P (PI3P) are known to play a critical role in mediating autophagy (Levine, B., and Klionsky, D. J. (2004). Development by self-digestion: molecular mechanisms and biological functions of autophagy. Dev Cell 6, 463-477). To ask if MBCQ has an effect on PI3P, H4 cells expressing FYVE-RFP were used. FYVE binds specifically to PI3P and is widely used as a marker for cellular levels for PI3P (Gaullier, J. M., Simonsen, A., D'Arrigo, A., Bremnes, B., Stenmark, H., and Aasland, R. (1998). FYVE fingers bind PtdIns(3)P. Nature 394, 432-433).

[1] = tested on: LC3-GFP (H4-LC3-GFP cells); assay: Starvation induced autophagy in H4-LC3-GFP cells; conditions: Hanks buffer 1 h; MBCQ 5 μM, 3-MA 10 mM, wortmannin 0.1 μM
Text: FIG. 2 depicts results relating to MBCQ inhibition of autophagy induced by starvation. Quantitative measurement of LC3-GFP spot number per cell (a), spot size per cell (b) and spot intensity per cell (c) using HCS and expressed as % of control.

Row | SMILES | IC50 (LC3-GFP (H4-LC3 cells); cell-based assays, read-out: IC50, inhibition of autophagy) | protein levels of FYVE-RFP by western blotting (PI3P (FYVE-RFP)) | levels of FYVE-RFP spots (PI3P (FYVE-RFP)) | fold more potent than 3-MA (LC3-GFP (H4-LC3 cells); IC50 versus 3-MA working concentration of 10 mM) | LC3-GFP dots (number, spot size, spot intensity) (LC3-GFP (H4-LC3 cells); basal and rapamycin (0.2 μM) stimulated, 10 μM MBCQ) | IC50 (LC3-GFP (H4-LC3 cells); rapamycin and MBCQ together versus rapamycin alone, read-out: IC50 (intensity of LC3-GFP)) | starvation induced autophagy (LC3-GFP spot number, size, intensity) [1]
1 | Fc1ccc(CNc2ncnc3ccc(F)cc23)cc1 [C43, 6-fluoro-N-(4-fluorobenzyl)quinazolin-4-amine] | 0.87 µM and ~0.8 µM | no effect on the protein levels of FYVE-RFP | reduce FYVE-RFP spots | – | – | – | –
2 | Clc1ccc2ncnc(NCc3ccc4c(c3)OCO4)c2c1 [MBCQ] | – | – | rapidly and effectively reduced the levels of FYVE-RFP spots | about 10,000 fold | reduced the number, spot size as well as spot intensity | 0.788 µM | significantly reduced

Reference: patent US20120258975A1, “Potent Small Molecule Inhibitors of Autophagy, and Methods of Use Thereof” (Shanghai Institute of Organic Chemistry, priority 2009, published 2012)
